The numbers were not newly measured in publication PMC9968064, “First Synthesis of DBU-Conjugated Cationic Carbohydrate Derivatives and Investigation of Their Antibacterial and Antifungal Activity” (International Journal of Molecular Sciences, 2023), which cites them from elsewhere.

In data set [1] the test system is Candida albicans (ATCC 10231). Also on record: method as in PMID 32349998, PMID 25392352. The settings on record: reference antifungal; cited from earlier work.
The test system of data set [2] is Staphylococcus aureus ssp. aureus (ATCC 6538). Set-up: method as in PMID 22866984. The settings on record: reference antibiotics; cited from earlier work.
The test system of data set [3] is Escherichia coli (ATCC 8739). Also on record: method as in PMID 24144185. The settings on record: reference antibiotics; cited from earlier work.

For the molecule `C[C@@H]1[C@H](O)[C@@H](C)/C=C/C=C/C=C/C=C/C=C/C=C/C=C/[C@H](O[C@@H]2O[C@H](C)[C@@H](O)[C@H](N)[C@@H]2O)C[C@@H]2O[C@](O)(C[C@@H](O)C[C@@H](O)[C@H](O)CC[C@@H](O)C[C@@H](O)CC(=O)O[C@H]1C)C[C@H](O)[C@H]2C(=O)O` [Amphotericin B], the “MIC Candida albicans (ATCC 10231)” value in data set [1] was <0.5 [46, 47] µg/mL.
For `CC(C)(O/N=C(\C(=O)N[C@@H]1C(=O)N2C(C(=O)[O-])=C(C[n+]3ccccc3)CS[C@H]12)c1csc(N)n1)C(=O)O` [Ceftazidime], the “MIC Staphylococcus aureus (ATCC 6538)” value in data set [2] is 8 [43, 44, 45] µg/mL. The “MIC Escherichia coli (ATCC 8739)” value in data set [3] is 8 [42] µg/mL.
